Test results as given in patent publication US20250163052A1, “cGAS INHIBITORS AND USES THEREOF” (Cornell University, priority 2022, published 2025).

Experiments:
m-cGAS = m-cGAS (Mus musculus, UniProt Q8C6L5); test: Cell-free mouse cGAS enzyme inhibition assay (ATP depletion, Kinase-Glo Max); assay type: biochemical; settings: 1 h; for inhibition at 10 µM: read-out: m-cGAS, conc. 10 μM; for inhibition at 1 µM: read-out: m-cGAS, conc. 1 μM
Protocol: (§1) Cell-free mouse and human cGAS enzyme inhibition assay (Table 2). Activity of all compounds (in Table 1) against m-cGAS (30 nM) and or h-cGAS, (100 nM) was determined by measuring the conversion of ATP and GTP (100 μM each) to cGAMP in the presence of dsDNA (5 ug/mL) in a reaction buffer composed of Tris-HCl (20 mM, pH7.4), NaCl (150 mM), MnCl2 (0.2 mM, h-cGAS) or MgCl2 (5 mM, m-cGAS) and Tween-20 (0.01%), and the remaining ATP concentration using Kinase-Glo®Max Luminescent Kinase Assay (Promega, Madison, WI), as described (Lama, et. al., 2019). Briefly, 10 μl of a master mix of 0.4 mM ATP, 0.4 mM GTP, 0.02 mg/mL dsDNA in the reaction buffer supplemented with 2 mM DTT was added to reaction wells containing TDI-6570 or TDI-8246 (2× of the desired concentration) in the same buffer ([…]) using a Thermo 8-channel Multidrop Combi dispenser. Next, 10 μl of a 4×m-cGAS (0.120 μM) or h-cGAS (0.4 μM) solution in the reaction buffer supplemented with 2 mM DTT was added to appropriate wells. Similar sets of reactions without cGAS or the inhibitor was set by adding the buffer alone. The reactions with the plates sealed were incubated at 37° C. (1 hour for m-cGAS and 3 hours for h-cGAS) and stopped by addition of 40 μl of the Kinase-Glo®Max. The luminescence was recorded in relative light units (RLUs) using a Biotek Synergy H1 Hybrid plate reader (BioTek, Winooski, VT). […] All reactions were run in triplicates and calculated using GraphPad Prism 9. The values represent mean IC50±S.D.

h-cGAS = h-cGAS (Homo sapiens, UniProt Q8N884); test: Cell-free human cGAS enzyme inhibition assay (ATP depletion, Kinase-Glo Max); assay type: biochemical; settings: 3 h; for inhibition at 10 µM: read-out: h-cGAS, conc. 10 μM; for inhibition at 1 µM: read-out: h-cGAS, conc. 1 μM
Protocol: as §1

IFNB = test: THP1-Dual cells transfected with DNA, Ifnb expression (Quantiluc); assay type: cell-based; settings: Homo sapiens; for inhibition at 10 µM: THP-1, 10 μM; for inhibition at 30 µM: THP-1, 30 μM
Protocol: (§2) Evaluation of active cGAS inhibitors in THP1 cells (Table 3). Cellular activity of all compounds (in Table 3) was determined using THP1-Dual™ cells as described (Lama et. al., 2019). THP1-Dual™ cells (Invivogen) (50000 cells in 100 μl media) were seeded into each well of a 96-well plate and treated with compounds at various dilution for 4 hours. Subsequently, cells were transfected with DNA (2 ug/ml) and lipofectamine and incubate the cells were incubated overnight. Ifnb expression was measured in cell supernatant using Quantiluc, nfkb expression was determined using Quantiblue, and cell viability using Promega® CellTiter-Glo®.

THP1 cells = test: THP1-Dual cells, cell viability (CellTiter-Glo); assay type: cell-based
Protocol: as §2

Chain of m-cGAS (Q8C6L5 whole entry): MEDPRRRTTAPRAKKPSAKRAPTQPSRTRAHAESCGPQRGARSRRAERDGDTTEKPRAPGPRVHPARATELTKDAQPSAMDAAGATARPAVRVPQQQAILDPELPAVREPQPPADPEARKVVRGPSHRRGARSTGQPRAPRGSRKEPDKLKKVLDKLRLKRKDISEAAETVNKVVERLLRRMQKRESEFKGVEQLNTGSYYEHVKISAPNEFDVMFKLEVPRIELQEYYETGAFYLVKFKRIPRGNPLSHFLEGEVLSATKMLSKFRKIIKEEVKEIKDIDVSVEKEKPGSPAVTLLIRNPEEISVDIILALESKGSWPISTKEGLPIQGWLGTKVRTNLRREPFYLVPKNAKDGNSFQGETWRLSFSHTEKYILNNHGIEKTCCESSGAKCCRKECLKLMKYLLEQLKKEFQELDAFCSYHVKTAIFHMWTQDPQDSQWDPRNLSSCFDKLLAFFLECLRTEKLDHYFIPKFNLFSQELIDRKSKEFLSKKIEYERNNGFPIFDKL
Chain of h-cGAS (Q8N884 whole entry): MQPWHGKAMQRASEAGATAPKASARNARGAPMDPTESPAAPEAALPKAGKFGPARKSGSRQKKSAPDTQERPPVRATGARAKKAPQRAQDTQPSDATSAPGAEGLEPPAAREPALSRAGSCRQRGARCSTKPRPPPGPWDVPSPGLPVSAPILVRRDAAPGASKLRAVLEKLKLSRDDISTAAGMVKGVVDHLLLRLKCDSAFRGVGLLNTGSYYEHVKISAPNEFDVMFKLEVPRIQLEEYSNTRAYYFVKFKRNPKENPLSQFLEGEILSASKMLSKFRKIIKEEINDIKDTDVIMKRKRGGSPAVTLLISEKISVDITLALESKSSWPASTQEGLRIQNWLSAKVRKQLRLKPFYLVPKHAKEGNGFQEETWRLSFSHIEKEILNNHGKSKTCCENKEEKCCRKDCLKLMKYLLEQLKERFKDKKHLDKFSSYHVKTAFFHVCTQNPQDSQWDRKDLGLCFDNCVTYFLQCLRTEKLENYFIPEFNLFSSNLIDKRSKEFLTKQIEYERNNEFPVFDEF

inhibition at 10 µM (m-cGAS) [%] | inhibition at 10 µM (h-cGAS) [%] | inhibition at 1 µM (h-cGAS) [%] | inhibition at 1 µM (m-cGAS) [%] | SMILES | inhibition at 10 µM (IFNB) [%] | inhibition at 30 µM (IFNB) [%] | Cell viability 10 μM (THP1 cells) | Cell viability 30 μM (THP1 cells)
0 to 24 | 0 to 24 |  |  | O=C(CO)N1CCc2sc3c(Cl)c(Cl)cc(-c4cc[nH]n4)c3c2C1 [Compound 50] |  |  |  | 
0 to 24 | 0 to 24 |  |  | CC(C)(N)C(=O)N1CCc2sc3c(Cl)c(Cl)cc(-c4cc[nH]n4)c3c2C1 [Compound 55] |  |  |  | 
75 to 100 | 50 to 74 | 0 to 24 |  | O=C(CO)N1CCc2c(sc3c(Cl)c(Cl)ccc23)C1 [Compound 58] |  |  |  | 
50 to 74 | 25 to 49 |  | 0 to 24 | Cn1ccc(-c2cc(Cl)c(Cl)c3sc4c(c23)CCN(C(=O)CO)C4)n1 [Compound 60] |  |  |  | 
 | 25 to 49 |  |  | O=C(CO)N1CCc2c(sc3c(Cl)c(Cl)cc(-c4cc[nH]n4)c23)C1 [Compound 61] |  |  |  | 
 | 25 to 49 | 0 to 24 |  | O=C(CO)N1CCc2c(sc3c(Cl)c(Cl)cc(-c4ccco4)c23)C1 [Compound 64] |  |  |  | 
 | 0 to 24 |  |  | CNc1ccc(-c2cc(Cl)c(Cl)c3sc4c(c23)CCN(C(=O)CO)C4)cn1 [Compound 66] |  |  |  | 
 | 25 to 49 |  |  | O=C(CO)N1CCc2c(sc3c(Cl)c(Cl)cc(-c4nccs4)c23)C1 [Compound 67] |  |  |  | 
 | 0 to 24 |  |  | O=C(CO)N1CCc2c(sc3c(Cl)c(Cl)cc(-c4cccnc4)c23)C1 [Compound 68] |  |  |  | 
 | 0 to 24 |  |  | O=C(CO)N1CCc2c(sc3c(Cl)c(Cl)cc(-c4ccncc4)c23)C1 [Compound 69] |  |  |  | 
 | 0 to 24 |  |  | O=C(CO)N1CCc2c(sc3c(Cl)c(Cl)cc(-c4cncs4)c23)C1 [Compound 70] |  |  |  | 
 | 50 to 74 | 0 to 24 |  | CC(C)(N)C(=O)N1CCc2c(sc3c(Cl)c(Cl)cc(-c4cn[nH]c4)c23)C1 [Compound 85] | 75 to 100 | 75 to 100 | + (+, ++, and +++ mean the compound respectively shows 25-49%; 50-74%; or 75-100% viability to cells) | − (Cell viability <24%, in THP1 cells is expressed as “−”)

Second part, the compound before the results:

SMILES | inhibition at 10 µM (m-cGAS) [%] | inhibition at 10 µM (h-cGAS) [%] | inhibition at 1 µM (h-cGAS) [%] | inhibition at 1 µM (m-cGAS) [%] | inhibition at 10 µM (IFNB) [%] | inhibition at 30 µM (IFNB) [%] | Cell viability 10 μM (THP1 cells) | Cell viability 30 μM (THP1 cells)
Cn1c2c(c3c(-c4ccc(O)nc4)cc(Cl)c(F)c31)CN(C(=O)CO)CC2 [Compound 2] | 0 to 24 | 0 to 24 |  |  |  |  |  | 
CC(C)(C)OC(=O)N1CCCC1C(=O)N1CCc2[nH]c3c(Cl)c(Cl)cc(-c4ccc(N)nc4)c3c2C1 (stereo not drawn) [Compound 13] | 0 to 24 | 0 to 24 |  |  |  |  |  | 
Cn1c2c(c3c(-c4ccc(N)nc4)cc(Cl)c(Cl)c31)CN(C(=O)C1CCCN1C(=O)OC(C)(C)C)CC2 (stereo not drawn) [Compound 14] | 0 to 24 | 0 to 24 |  |  |  |  |  | 
Cn1c2c(c3c(-c4ccn[nH]4)cc(Cl)c(Cl)c31)CN(C(=O)C1CCCN1C(=O)OC(C)(C)C)CC2 (stereo not drawn) [Compound 15] | 0 to 24 | 0 to 24 |  |  |  |  |  | 
Cn1c2c(c3c(-c4ccn[nH]4)cc(Cl)c(Cl)c31)CN(C(=O)C1CCCN1)CC2 (stereo not drawn) [Compound 18] | 0 to 24 | 0 to 24 |  |  |  |  |  | 
Nc1ccc(-c2cc(Cl)c(Cl)c3[nH]c4c(c23)CN(C(=O)C2(N)CC2)CC4)cn1 [Compound 19] | 0 to 24 | 0 to 24 |  |  |  |  |  | 
O=C(CO)N1CCc2oc3c(Cl)c(Cl)cc(-c4cc[nH]n4)c3c2C1 [Compound 28] |  | 50 to 74 | 25 to 49 |  | 50 to 74 | 50 to 74 | +++ (+, ++, and +++ mean the compound respectively shows 25-49%; 50-74%; or 75-100% viability to cells) | +++ (+, ++, and +++ mean the compound respectively shows 25-49%; 50-74%; or 75-100% viability to cells)
O=C(CO)N1CCc2oc3c(Cl)c(Cl)cc(-c4cn[nH]c4)c3c2C1 [Compound 29] |  | 75 to 100 | 25 to 49 |  | 50 to 74 | 75 to 100 | +++ (+, ++, and +++ mean the compound respectively shows 25-49%; 50-74%; or 75-100% viability to cells) | +++ (+, ++, and +++ mean the compound respectively shows 25-49%; 50-74%; or 75-100% viability to cells)
O=C(CO)N1CCc2oc3c(Cl)c(Cl)cc(-c4ccco4)c3c2C1 [Compound 30] |  | 50 to 74 | 0 to 24 |  | < 24 | 25 to 49 | +++ (+, ++, and +++ mean the compound respectively shows 25-49%; 50-74%; or 75-100% viability to cells) | +++ (+, ++, and +++ mean the compound respectively shows 25-49%; 50-74%; or 75-100% viability to cells)
O=C(CO)N1CCc2oc3c(Cl)c(Cl)cc(-c4nccs4)c3c2C1 [Compound 31] |  | 75 to 100 | 50 to 74 |  | 50 to 74 | 50 to 74 | +++ (+, ++, and +++ mean the compound respectively shows 25-49%; 50-74%; or 75-100% viability to cells) | +++ (+, ++, and +++ mean the compound respectively shows 25-49%; 50-74%; or 75-100% viability to cells)
CC(C)(N)C(=O)N1CCc2oc3c(Cl)c(Cl)cc(-c4cc[nH]n4)c3c2C1 [Compound 34] |  | 50 to 74 | 25 to 49 |  | 75 to 100 | 75 to 100 | +++ (+, ++, and +++ mean the compound respectively shows 25-49%; 50-74%; or 75-100% viability to cells) | − (Cell viability <24%, in THP1 cells is expressed as “−”)
NCC(=O)N1CCc2c(oc3c(Cl)c(Cl)cc(-c4cncnc4)c23)C1 [Compound 39] |  | 75 to 100 | 0 to 24 |  | 25 to 49 | 75 to 100 | +++ (+, ++, and +++ mean the compound respectively shows 25-49%; 50-74%; or 75-100% viability to cells) | +++ (+, ++, and +++ mean the compound respectively shows 25-49%; 50-74%; or 75-100% viability to cells)
Cn1cc(-c2cc(Cl)c(Cl)c3oc4c(c23)CCN(C(=O)CN)C4)cn1 [Compound 40] |  | 75 to 100 | 50 to 74 |  | 75 to 100 | 75 to 100 | +++ (+, ++, and +++ mean the compound respectively shows 25-49%; 50-74%; or 75-100% viability to cells) | − (Cell viability <24%, in THP1 cells is expressed as “−”)
Cn1ccc(-c2cc(Cl)c(Cl)c3oc4c(c23)CCN(C(=O)CN)C4)n1 [Compound 41] |  | 75 to 100 | 50 to 74 |  | 50 to 74 | 75 to 100 | +++ (+, ++, and +++ mean the compound respectively shows 25-49%; 50-74%; or 75-100% viability to cells) | − (Cell viability <24%, in THP1 cells is expressed as “−”)
O=C(CO)N1CCc2sc3c(Cl)c(Cl)cc(-c4cncnc4)c3c2C1 [Compound 47] | 50 to 74 | 50 to 74 | 0 to 24 | 0 to 24 |  |  |  | 
Nc1ccc(-c2cc(Cl)c(Cl)c3sc4c(c23)CN(C(=O)CO)CC4)cn1 [Compound 49] | 25 to 49 | 0 to 24 |  |  |  |  |  | 
